Reference: ChEMBL document CHEMBL2346654, “Discovery of biological evaluation of pyrazole/imidazole amides as mGlu5 receptor negative allosteric modulators” (Bioorg Med Chem Lett, 2013)

How the values were obtained:
[1] = Half life in rat liver microsomes
[2] = Half life in human liver microsomes
[3] = Half life in mouse liver microsomes
[4] = molecular target: Metabotropic glutamate receptor 5 (Homo sapiens, UniProt P41594); test: Negative allosteric modulation of human mGluR5 expressed in HEK293 cells assessed as calcium mobilization by FLIPR assay; format: functional, cell-based
Chain of Metabotropic glutamate receptor 5 (P41594 whole entry): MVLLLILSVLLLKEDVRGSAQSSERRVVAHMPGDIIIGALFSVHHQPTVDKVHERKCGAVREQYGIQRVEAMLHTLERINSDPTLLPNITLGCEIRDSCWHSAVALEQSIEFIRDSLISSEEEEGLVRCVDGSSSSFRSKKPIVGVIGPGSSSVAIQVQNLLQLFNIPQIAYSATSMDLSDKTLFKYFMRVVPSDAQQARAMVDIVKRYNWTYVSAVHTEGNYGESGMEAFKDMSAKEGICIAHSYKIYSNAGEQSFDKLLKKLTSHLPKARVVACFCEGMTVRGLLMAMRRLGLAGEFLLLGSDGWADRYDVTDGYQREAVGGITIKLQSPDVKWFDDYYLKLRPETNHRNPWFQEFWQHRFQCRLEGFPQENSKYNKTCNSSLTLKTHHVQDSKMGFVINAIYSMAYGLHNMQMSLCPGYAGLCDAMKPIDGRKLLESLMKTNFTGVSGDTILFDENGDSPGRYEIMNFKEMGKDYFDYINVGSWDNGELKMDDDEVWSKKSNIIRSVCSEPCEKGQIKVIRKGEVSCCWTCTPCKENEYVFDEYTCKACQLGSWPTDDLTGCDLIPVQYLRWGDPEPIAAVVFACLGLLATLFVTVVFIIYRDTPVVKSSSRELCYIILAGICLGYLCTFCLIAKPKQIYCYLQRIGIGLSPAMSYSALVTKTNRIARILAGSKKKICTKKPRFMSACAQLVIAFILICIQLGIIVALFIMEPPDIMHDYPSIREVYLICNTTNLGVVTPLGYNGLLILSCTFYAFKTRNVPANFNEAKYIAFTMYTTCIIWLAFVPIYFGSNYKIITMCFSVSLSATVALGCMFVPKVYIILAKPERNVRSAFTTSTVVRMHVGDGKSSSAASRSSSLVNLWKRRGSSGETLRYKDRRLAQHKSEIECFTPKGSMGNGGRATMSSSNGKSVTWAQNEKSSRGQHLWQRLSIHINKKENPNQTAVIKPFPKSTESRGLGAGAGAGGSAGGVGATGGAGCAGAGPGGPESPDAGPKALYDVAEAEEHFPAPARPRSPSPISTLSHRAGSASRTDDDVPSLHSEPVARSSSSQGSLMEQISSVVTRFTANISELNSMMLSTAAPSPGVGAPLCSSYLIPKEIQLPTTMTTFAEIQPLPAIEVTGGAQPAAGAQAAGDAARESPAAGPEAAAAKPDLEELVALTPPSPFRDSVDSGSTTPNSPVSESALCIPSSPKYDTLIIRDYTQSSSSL

| Structure (SMILES) | half-life ([1]; microsomes) | half-life ([2]; microsomes) | half-life ([3]; microsomes) | IC50 [4] | half-life ([1]; liver microsomes) | half-life ([2]; liver microsomes) | half-life ([3]; liver microsomes) |
| --- | --- | --- | --- | --- | --- | --- | --- |
| Cc1cc(NC(=O)c2nn(C)c(-c3ccc(F)cc3)c2C)ccn1 | 1.27 h | 1.28 h | 1.4 h | 94.5 nM |  |  |  |
| Cc1ccnc(NC(=O)c2nn(C)c(-c3ccc(F)cc3)c2C)c1 | 1.98 h | 1.52 h | 0.167 h | 82.3 nM |  |  |  |
| Cc1cccc(NC(=O)c2nn(C)c(OC3CCCCC3)c2C)n1 |  |  |  | 92 nM |  |  |  |
| Cc1cccc(NC(=O)c2nn(C)c(OCC3CCCCC3)c2C)n1 |  |  |  | 1300 nM |  |  |  |
| Cc1cccc(NC(=O)c2nn(C)c(C3CCCCC3)c2C)n1 |  |  |  | 25 nM | 0.133 h | 1.38 h | 0.467 h |
| Cc1cccc(NC(=O)c2nc(C)n(-c3ccc(F)c(Cl)c3)c2C)n1 | 1.45 h | 1.27 h | 1.17 h | 14.5 nM |  |  |  |
| Cc1cccc(NC(=O)c2nn(C)c(-c3ccncc3)c2C)n1 | 0.617 h | 0.7 h | 0.133 h | 71 nM |  |  |  |
| Cc1cccc(NC(=O)c2nc(C)n(-c3ccc(Cl)cc3)c2C)n1 | 0.983 h | 0.9 h | 1.35 h | 17.1 nM |  |  |  |
| O=C(Nc1cccc(Cl)c1)c1noc2c1CCC2 |  |  |  | 63 nM |  |  |  |
| Cc1c(C(=O)Nc2ccncc2)nn(C)c1-c1ccc(F)cc1 |  |  |  | 301 nM |  |  |  |
| Cc1ccc(NC(=O)c2nn(C)c(-c3ccc(F)cc3)c2C)nc1 |  |  |  | 90.8 nM | 1.12 h | 0.433 h | 0.217 h |
| Cc1nc(C(=O)Nc2cccc(F)n2)c(C)n1-c1ccc(F)cc1 |  |  |  | 24.2 nM | 1.13 h | 1.6 h | 0.617 h |
| Cc1cccc(NC(=O)c2nn(C)c(-c3ccc(N(C)C)cc3)c2C)n1 |  |  |  | 645 nM |  |  |  |
| Cc1cccc(NC(=O)c2nn(C)c3ccccc23)n1 |  |  |  | > 1000 nM |  |  |  |
| Cc1nc(C(=O)Nc2cccc(C(F)(F)F)n2)c(C)n1-c1ccc(F)cc1 |  |  |  | 173 nM | 1.2 h | 3.27 h | 2.63 h |
| Cc1cccc(NC(=O)c2nn(C)c(-c3cccc(Cl)c3)c2C)n1 | 0.917 h | 2 h | 0.533 h | 4.7 nM |  |  |  |

| Structure (SMILES) | half-life ([1]; microsomes) | half-life ([2]; microsomes) | half-life ([3]; microsomes) | IC50 [4] | half-life ([1]; liver microsomes) | half-life ([2]; liver microsomes) | half-life ([3]; liver microsomes) |
| --- | --- | --- | --- | --- | --- | --- | --- |
| Cc1nc(NC(=O)c2nn(C)c(-c3ccc(F)cc3)c2C)ccc1F | 2.77 h | 3.55 h | 1.65 h | 28 nM |  |  |  |
| Cc1cnc(NC(=O)c2nn(C)c(-c3ccc(F)cc3)c2C)s1 |  |  |  | 2700 nM |  |  |  |
| Cc1cccc(NC(=O)c2c3c(nn2C)CCCC3)n1 |  |  |  | > 1000 nM |  |  |  |
| O=C(Nc1cc(Cl)ccc1O)c1noc2c1CCC2 |  |  |  | 373 nM |  |  |  |
| Cc1cccc(NC(=O)c2nn(C)c(OCc3ccc(F)cc3)c2C)n1 |  |  |  | 911 nM |  |  |  |
| Cc1c(C(=O)Nc2cc(Cl)ccn2)nn(C)c1-c1ccc(F)cc1 | 2.38 h | 2.1 h | 0.4 h | 195 nM |  |  |  |
| Cc1cccc(NC(=O)c2nn(C)c3c2CCCC3)n1 |  |  |  | 27 nM |  |  |  |
| Cc1nc(NC(=O)c2nc(C)n(-c3ccc(F)cc3)c2C)ccc1F |  |  |  | 139 nM | 0.733 h | 1 h | 1.43 h |
| Cc1nc(C(=O)Nc2ccc(F)cn2)c(C)n1-c1ccc(F)cc1 | 1.83 h | > 5 h | 0.533 h | 88.3 nM |  |  |  |
| Cc1cccc(NC(=O)c2nn(C)c(-c3cc(F)cc(F)c3)c2C)n1 |  |  |  | 5.3 nM | 1.07 h | 0.533 h | 0.3 h |
| Cc1c(C(=O)Nc2ccc(Cl)cn2)nn(C)c1-c1ccc(F)cc1 |  |  |  | 184 nM | 3.65 h | > 5 h | 0.267 h |
| COc1ccc(-n2c(C)nc(C(=O)Nc3cccc(C)n3)c2C)cc1 |  |  |  | 147 nM |  |  |  |
| CCc1c(C(=O)Nc2cccc(C)n2)nn(C)c1-c1ccccc1 |  |  |  | 27 nM |  |  |  |
| Cc1nc(C(=O)Nc2ccnc(Cl)c2)c(C)n1-c1ccc(F)cc1 | 1.57 h | 3.75 h | 5 h | 62 nM |  |  |  |
| Cc1nc(C(=O)Nc2cccc(C#N)n2)c(C)n1-c1ccc(F)cc1 |  |  |  | 77 nM |  |  |  |
